In patent US20250195553A1, “Use of Genipin-1-B-D-Gentiobioside in Preparation of Drug” (Guizhou Bailing Group Pharmaceutical Co., Ltd., priority 2023, published 2025):
Where “and” joins values, the source holds several entries; their conditions need not be identical. Equal entries are not always repeated. Where two headings read alike, the source gives them in different places.

Assays:
[1] = system: Human Coronavirus 229E (HCoV-229E); assay type: in vivo
[2] = system: Lipopolysaccharide (LPS)-induced pneumonia model in mice; assay: Inflammatory factors in lung tissue of LPS-induced pneumonia mice (ELISA); assay type: in vivo, ICR mice; conditions: i.v.
Description: Sixty healthy mice, weighing 18˜20 g, half male and half female, were selected and randomly grouped after stratification by weight; they were divided into a normal control group, a model control group, three Genipin-1-β-D-gentiobioside dose groups (150 mg/kg/d, 75 mg/kg/d, 37.5 mg/kg/d), and a positive control drug Sivelestat Sodium 50 mg/kg/d group, with 10 mice in each group, half male and half female. After grouping, each treatment group was administered intravenously at 20 ml/kg once daily for 2 consecutive days, while the normal control group and model control group were injected with physiological saline. One hour after the second dose, except for the normal control group, the other groups were lightly anesthetized with isoflurane, and a 20 mg/ml LPS physiological saline solution was administered intranasally to the mice at 0.05 ml/mouse to induce the pneumonia model. Six hours after infection, the animals were sacrificed, dissected, and their lungs were removed and weighed to calculate the lung index (lung index=lung weight/body weight×100%).
(1) Sample Collection and Storage: Tissue homogenate samples: The lung tissues of mice were collected and weighed, including those from mice numbered 1, 2, 3, 6, 7, and 8 in each group. The tissues were stored at […] An ultrasonic cell disruptor was used to homogenize the tissues, followed by centrifugation at […] and 1000 r/min for 10 minutes using a low-temperature high-speed centrifuge. The supernatant was then collected, aliquoted, and stored at −80° C. for future use, avoiding repeated freeze-thaw cycles.
(2) The microwell plate, which had been equilibrated to room temperature, was removed from the sealed bag. Different concentrations of standards, experimental samples, or quality control samples were added to the corresponding wells, with 100 μL per well. The reaction wells were sealed with sealing tape and incubated at room temperature for 2 hours. The plate was then washed with wash buffer, repeating the operation four times. After the final wash, the plate was inverted and all residual liquid was patted dry on absorbent paper. Next, 100 μL of enzyme-labeled detection antibody was added to each microwell. The reaction wells were sealed again with sealing tape and incubated at room temperature for another 2 hours. The washing step was repeated as described above. Then, 100 μL of substrate solution was added to each microwell and incubated at room temperature for 30 minutes, protected from light. Within 30 minutes after adding 100 μL of stop solution to each microwell, the absorbance at 450 nm was measured using a microplate reader. The results were then calculated.

[3] = system: Human Respiratory Syncytial Virus (RSV); assay: RSV viral load in mouse lung tissue (RT-PCR), nebulization; assay type: in vivo
Description: […] Each group consisted of 10 mice, with an equal number of males and females. Except for the normal control group, all mice were lightly anesthetized with isoflurane and infected with respiratory syncytial virus (RSV) via intranasal administration, with each mouse receiving 35 μl of the virus. On the day of infection, the treatment groups began inhalation administration. Each group received nebulization for 25 minutes once daily for four consecutive days. The normal control group and the model control group received nebulized saline under the same conditions. On the fifth day, after weighing, the mice were sacrificed by cervical dislocation, and their lung tissues were dissected, weighed, and used to calculate the lung index and lung index inhibition rate. The lung tissues were also retained for virus load, pathological examination, and inflammatory factor detection. The results were statistically analyzed using the t-test for intergroup comparisons.
After dissecting the mice, the lung tissues were collected and stored in separate containers at −80° C. in a low-temperature freezer. The lung tissues were then removed from the −80° C. freezer and placed in a clean mortar. A small amount of liquid nitrogen was poured into the mortar, and the tissues were ground into powder using a pestle. The powder was collected in a 1.5 ml centrifuge tube, and 1 ml of TRIzol Reagent was immediately added. The tube was gently tapped at the bottom to mix the sample and ensure it was resuspended as soon as possible. The centrifuge tube was then placed horizontally at room temperature and incubated for 20 minutes. Next, it was centrifuged at 4° C. and 12,000 rpm for 10 minutes. The clear supernatant was transferred to a new 1.5 ml centrifuge tube, and 0.2 ml of chloroform was added. The tube was tightly capped, vigorously shaken for 15 seconds, and then incubated at room temperature for 2-3 minutes until the liquid separated into layers. After centrifuging at 4° C. and 12,000 rpm for 15 minutes, the transparent supernatant was carefully transferred to a new 1.5 ml centrifuge tube. Then, 0.5 ml of isopropanol was added, mixed well, and incubated at room temperature for 30 minutes. Following centrifugation at 4° C. and 12,000 rpm for 10 minutes, the supernatant was discarded. The precipitate was gently washed with 1 ml of 75% ethanol (to allow the white precipitate to float slightly), and then centrifuged at 4° C. and 7,500 rpm for 5 minutes. The supernatant was completely aspirated, and the RNA precipitate was briefly dried for 5-10 minutes. The precipitate was then dissolved in 20 μl of DEPC (Diethylpyrocarbonate)-treated water and stored in a −80° C. low-temperature freezer.
Treatment of Control Nucleic Acid: DEPC-H2O was used as a negative control. For the positive control, a series of four concentrations were prepared by gradient dilution at 10^7, 10^6, 10^5, and 10^4 copies/ml.
Reagent Preparation: Mix n×18 μl of RSV nucleic acid fluorescent PCR detection mixture, n×1 μl of internal control, and n×1 μl of RT-PCR enzyme (where n is the number of reaction tubes). Shake vigorously for a few seconds and centrifuge at 3000 rpm for a few seconds.
Sample Addition: Dispense 20 μl of the above mixture into each PCR tube. Then, add 5 μl of sample nucleic acid extract, DEPC-H2O, and positive control to the respective PCR tubes. Tightly close the tube caps, centrifuge for a few seconds to ensure all liquids are at the bottom, and immediately proceed with PCR amplification.
PCR Amplification: Place the reaction tubes in a quantitative fluorescent PCR instrument. Set the cycling parameters as follows: 45° C. for 10 minutes; 95° C. for 15 minutes; then 40 cycles of 95° C. for 15 seconds→60° C. for 60 seconds. Single-point fluorescent detection is performed at 60° C., with a reaction volume of 25 μl.
Fluorescent Channel Selection: Select the FAM and HEX/VIC/JOE channels for detection. […]

[4] = 37.5 mg/ml nebulization 25 min once daily 4 days
[5] = 75 mg/ml nebulization 25 min once daily 4 days

Q: `COC(=O)C1=CO[C@@H](O[C@@H]2O[C@H](CO[C@@H]3O[C@H](CO)[C@@H](O)[C@H](O)[C@H]3O)[C@@H](O)[C@H](O)[C@H]2O)[C@@H]2C(CO)=CC[C@H]12` [Genipin-1-β-D-gentiobioside] was tested. Which “Inhibition Rate (lung index)” value ([1]; 37.5 mg/kg/d i.v. 4 days) did it give?
A: 75.12%

Q: And the “Lung Index” value ([1]; 37.5 mg/kg/d i.v. 4 days)?
A: 0.95 ± 0.11 g lung weight × 100 g/body weight

Q: What about the “Inhibition Rate (lung index)” value ([1]; 75 mg/kg/d i.v. 4 days) of the same compound?
A: 71.04%

Q: And the “Lung Index” value ([1]; 75 mg/kg/d i.v. 4 days)?
A: 0.96 ± 0.12 g lung weight × 100 g/body weight

Q: And the “Inhibition Rate (lung index)” value ([1]; 150 mg/kg/d i.v. 4 days)?
A: 99.06%

Q: And the “Lung Index” value ([1]; 150 mg/kg/d i.v. 4 days)?
A: 0.89 ± 0.06 g lung weight × 100 g/body weight

Q: And the “Inflammatory Factor Levels in Lung Tissue IL-6” value ([2]; dosage 37.5 (mg/ml))?
A: 16.53 ± 1.91 pg/mL

Q: And the “Inflammatory Factor Levels in Lung Tissue IL-10” value ([2]; dosage 37.5 (mg/ml))?
A: 39.00 ± 8.37 pg/mL

Q: What about the “Inflammatory Factor Levels in Lung Tissue TNF-α” value ([2]; dosage 37.5 (mg/ml)) of the same compound?
A: 106.13 ± 15.70 pg/mL

Q: What about the “Inflammatory Factor Levels in Lung Tissue IL-6” value ([2]; dosage 75 (mg/ml)) of the same compound?
A: 17.72 ± 2.15 pg/mL

Q: And the “Inflammatory Factor Levels in Lung Tissue IL-10” value ([2]; dosage 75 (mg/ml))?
A: 35.75 ± 6.74 pg/mL

Q: And the “Inflammatory Factor Levels in Lung Tissue TNF-α” value ([2]; dosage 75 (mg/ml))?
A: 119.71 ± 19.76 pg/mL

Q: And the “Inflammatory Factor Levels in Lung Tissue IL-6” value ([2]; dosage 150 (mg/ml))?
A: 16.63 ± 2.19 pg/mL

Q: What about the “Inflammatory Factor Levels in Lung Tissue IL-10” value ([2]; dosage 150 (mg/ml)) of the same compound?
A: 36.00 ± 5.14 pg/mL

Q: What about the “Inflammatory Factor Levels in Lung Tissue TNF-α” value ([2]; dosage 150 (mg/ml)) of the same compound?
A: 100.25 ± 12.41 pg/mL

Q: And the “Inhibition Rate (viral load)” value [3, 4]?
A: 57.54% and 57.43%

Q: And the “Viral Load in lung tissue” value [3, 4]?
A: 22127.79 ± 30384.54 copies/ng

Q: And the “Inhibition Rate (viral load)” value [3, 5]?
A: 56.08%

Q: What about the “Viral Load in lung tissue” value [3, 5] of the same compound?
A: 22745.57 ± 13287.06 copies/ng
